Results: publication PMC8776995 (Frontiers in Chemistry, 2022)
Several values for one entry are separate records, joined by “and”; a condition that tells them apart may be missing. Equal values may be shown once.

Assays:
PC-9 xenograft = assay: In vivo antitumor activity, PC-9 xenograft in NSG mice; parameters: species or system mouse; details: Day19, individual animals
Protocol: The mouse body mass was recorded as well.

wild-type EGFR = wild-type EGFR (Homo sapiens, UniProt P00533); assay: EGFR kinase assay (ELISA); details: for A450: raw ELISA absorbance
[1] = test system: AKT phosphorylation (S473) in H460 cells; assay: Western blot, p-AKT/AKT in H460; details: H460, 10 uM
Protocol: (§1) We also performed western blot analysis to evaluate the impact of e4 and e12 on EGFR signaling in PC-9 and H460 cells.
(§2) H460 cells were seeded in six-well plates with serum-free medium overnight, and then treated complete medium containing 0.1% DMSO, various concentrations (0.1, 1 and 10 μM) of either compound e4 or e12 for 2 h, respectively. […] Then the H460 cells were treated with complete medium containing EGF (10 ng/ml) for 5 min. Then the cells were harvested and washed with PBS, centrifuged, resuspended in 100–200 μl of RIPA lysis buffer containing Protease and Phosphatase Inhibitor Cocktail (1X), and then centrifuged for 5 min at 12,000 rpm at 4°C. The supernatant was used for protein analysis. […] Then the membrane was washed 5 min (X3) and incubated at 1:3,000 dilution of anti-rabbit secondary antibodies or 1:1,000 dilution of anti-mouse secondary antibodies for 1 h at RT. After washing with TBST 5 min (X3), protein bands were developed by chemiluminescence. The protein levels were quantified by the gray values of the bands in the resulting images by ImageJ, and the control group was used as the standard. […] The PC-9 cells were harvested and analyzed as above.

[2] = test system: AKT phosphorylation (S473) in PC-9 cells; assay: Western blot, p-AKT/AKT in PC-9; details: PC-9, 10 uM
Protocol: as §1, §2

[3] = test system: EGFR phosphorylation (Tyr1068) in H460 cells; assay: Western blot, p-EGFR/EGFR in H460; details: H460, 10 uM
Protocol: as §1, §2

[4] = test system: EGFR phosphorylation (Tyr1068) in PC-9 cells; assay: Western blot, p-EGFR/EGFR in PC-9; details: PC-9, 10 uM
Protocol: as §1, §2

H460 cells = assay: CCK-8 antiproliferation assay, H460
A549 cells = assay: CCK-8 antiproliferation assay, A549; details: for Inhibitory efficacy: A549 cells
PC-9 cells = assay: CCK-8 antiproliferation assay, PC-9; details: Homo sapiens, PC-9, 48 h, read-out: IC50 (μM) PC-9
H1975 cells = assay: CCK-8 antiproliferation assay, H1975

Chain of wild-type EGFR (P00533 25-1210): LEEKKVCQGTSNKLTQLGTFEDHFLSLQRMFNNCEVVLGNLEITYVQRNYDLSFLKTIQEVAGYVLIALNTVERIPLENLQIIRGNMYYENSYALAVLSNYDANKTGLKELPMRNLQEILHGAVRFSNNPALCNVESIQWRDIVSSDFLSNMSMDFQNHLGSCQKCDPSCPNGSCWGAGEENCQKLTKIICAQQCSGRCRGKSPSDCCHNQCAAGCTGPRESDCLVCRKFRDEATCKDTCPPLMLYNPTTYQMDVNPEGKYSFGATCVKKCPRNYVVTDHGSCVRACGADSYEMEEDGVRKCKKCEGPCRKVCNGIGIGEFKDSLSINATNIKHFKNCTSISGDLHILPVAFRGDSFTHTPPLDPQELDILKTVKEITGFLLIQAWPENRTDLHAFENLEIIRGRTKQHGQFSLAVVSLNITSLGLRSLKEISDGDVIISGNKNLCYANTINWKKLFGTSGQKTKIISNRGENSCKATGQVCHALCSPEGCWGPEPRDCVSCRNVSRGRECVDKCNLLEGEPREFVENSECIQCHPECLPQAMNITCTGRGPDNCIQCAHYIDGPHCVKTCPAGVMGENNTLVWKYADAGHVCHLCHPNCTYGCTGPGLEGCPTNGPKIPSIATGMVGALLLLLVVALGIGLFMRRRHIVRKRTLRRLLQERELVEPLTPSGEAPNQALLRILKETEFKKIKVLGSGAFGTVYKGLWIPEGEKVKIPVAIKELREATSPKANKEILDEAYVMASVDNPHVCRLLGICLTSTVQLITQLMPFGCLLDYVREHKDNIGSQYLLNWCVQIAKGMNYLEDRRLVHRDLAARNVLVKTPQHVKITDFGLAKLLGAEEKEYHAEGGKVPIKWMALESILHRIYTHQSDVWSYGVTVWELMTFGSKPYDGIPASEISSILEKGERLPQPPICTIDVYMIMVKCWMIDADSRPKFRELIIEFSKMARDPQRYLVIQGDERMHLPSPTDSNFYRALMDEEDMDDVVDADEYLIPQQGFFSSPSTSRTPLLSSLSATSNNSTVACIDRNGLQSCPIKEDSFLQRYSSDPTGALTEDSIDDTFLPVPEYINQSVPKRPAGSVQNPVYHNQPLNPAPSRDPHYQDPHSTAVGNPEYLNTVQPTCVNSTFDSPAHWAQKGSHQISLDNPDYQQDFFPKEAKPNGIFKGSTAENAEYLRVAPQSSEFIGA

IC50 (wild-type EGFR; IC50 (μM) EGFR, ELISA, 3 μmol/L ATP): 0.09 µM
inhibition at 100 fM (wild-type EGFR; concentration 0.0001 nM (reference for normalisation), one value per replicate column): 0%
Inhibition (wild-type EGFR; concentration 0.03 nM, one value per replicate column, 3e-05 µM): 3.563 and 0.1327
Inhibition (wild-type EGFR; concentration 0.3 nM, one value per replicate column, 0.0003 µM): 14.0143 and 0.8626
inhibition at 0.003 µM (wild-type EGFR; concentration 3 nM, one value per replicate column): 33.2%
Inhibition (wild-type EGFR; concentration 3 nM, one value per replicate column, 0.003 µM): 30.0597
inhibition at 0.03 µM (wild-type EGFR; concentration 30 nM, one value per replicate column): 44.4%
Inhibition (wild-type EGFR; concentration 30 nM, one value per replicate column, 0.03 µM): 47.6443
inhibition at 0.3 µM (wild-type EGFR; concentration 300 nM, one value per replicate column): 59.3%
Inhibition (wild-type EGFR; concentration 300 nM, one value per replicate column, 0.3 µM): 58.7259
inhibition at 3 µM (wild-type EGFR; concentration 3000 nM, one value per replicate column): 68.1%
Inhibition (wild-type EGFR; concentration 3000 nM, one value per replicate column, 3 µM): 67.4851
inhibition at 30 µM (wild-type EGFR; concentration 30000 nM, one value per replicate column): 86.9%
Inhibition (wild-type EGFR; concentration 30000 nM, one value per replicate column, 30 µM): 93.1652
A450 (wild-type EGFR; concentration 0.0001 nM): 1.566 and 1.805
A450 (wild-type EGFR; concentration 0.03 nM): 1.521 and 1.803
A450 (wild-type EGFR; concentration 0.3 nM): 1.389 and 1.792
A450 (wild-type EGFR; concentration 3 nM): 1.147 and 1.352
A450 (wild-type EGFR; concentration 30 nM): 1.005 and 1.087
A450 (wild-type EGFR; concentration 300 nM): 0.817 and 0.92
A450 (wild-type EGFR; concentration 3000 nM): 0.706 and 0.788
A450 (wild-type EGFR; concentration 30000 nM): 0.469 and 0.401
IC50 (H460 cells; Homo sapiens, NCI-H460, 48 h, read-out: IC50 (μM) H460, CCK-8, 48 h, average ± SD of three independent experiments): > 100 µM
IC50 (A549 cells; Homo sapiens, A549, 48 h, read-out: IC50 (μM) A549, CCK-8, 48 h, average ± SD of three independent experiments): > 100 µM
IC50 (PC-9 cells): > 100 µM
IC50 (H1975 cells; Homo sapiens, NCI-H1975, 48 h, read-out: IC50 (μM) H1975, CCK-8, 48 h, average ± SD of three independent experiments): > 100 µM
SMILES: COCCOc1cc2ncnc(Nc3cccc(-c4cn(-c5ccccc5)nn4)c3)c2cc1OCCOC [e15, [6,7-Bis-(2-methoxy-ethoxy)-quinazolin-4-yl]-[3-(1-phenyl-1H-[1,2,3]triazol-4-yl)-phenyl]-amine]
Tumor weight (PC-9 xenograft): 0.04 g and 0.03 g and 0.02 g and 0.01 g
p-AKT/AKT ([1]; band density ratio): 0.08408
p-AKT/AKT relative to DMSO ([1]; ratio normalised to DMSO): 0.08452
p-AKT/AKT ([2]; band density ratio): 0.03365
p-AKT/AKT relative to DMSO ([2]; ratio normalised to DMSO = 1): 0.03231
p-EGFR/EGFR ([3]; band density ratio): 0.02304
p-EGFR/EGFR relative to DMSO ([3]; ratio normalised to DMSO): 0.02768
p-EGFR/EGFR ([4]; band density ratio): 0.2353
p-EGFR/EGFR relative to DMSO ([4]; ratio normalised to DMSO = 1): 0.2103
Inhibitory efficacy (H460 cells; H460 cells, 2uM, given as fraction, Repeat 1-3): 0.04615 and 0.05031
inhibition at 2 µM (H460 cells; Homo sapiens, NCI-H460, read-out: Inhibitory efficacy, H460 cells, 2uM, given as fraction, Repeat 1-3): 5.86%
Inhibitory efficacy (A549 cells; 1uM, given as fraction, Repeat 1-3): 0.1367 and 0.1269
Inhibitory efficacy (A549 cells; 2uM, given as fraction, Repeat 1-3): 0.193 and 0.2629
Inhibitory efficacy (A549 cells; 4uM, given as fraction, Repeat 1-3): 0.2103 and 0.2621
Inhibitory efficacy (A549 cells; 8uM, given as fraction, Repeat 1-3): 0.2141 and 0.1622
Inhibitory efficacy (A549 cells; 16uM, given as fraction, Repeat 1-3): 0.2043 and 0.1059
inhibition at 1 µM (A549 cells; Homo sapiens, A549, read-out: Inhibitory efficacy, A549 cells, 1uM, given as fraction, Repeat 1-3): 11.7%
inhibition at 2 µM (A549 cells; Homo sapiens, A549, read-out: Inhibitory efficacy, A549 cells, 2uM, given as fraction, Repeat 1-3): 15.2%
inhibition at 4 µM (A549 cells; Homo sapiens, A549, read-out: Inhibitory efficacy, A549 cells, 4uM, given as fraction, Repeat 1-3): 18.5%
inhibition at 8 µM (A549 cells; Homo sapiens, A549, read-out: Inhibitory efficacy, A549 cells, 8uM, given as fraction, Repeat 1-3): 14.6%
inhibition at 16 µM (A549 cells; Homo sapiens, A549, read-out: Inhibitory efficacy, A549 cells, 16uM, given as fraction, Repeat 1-3): 11.9%
Inhibitory efficacy (H1975 cells; H1975 cells, 8uM, given as fraction, Repeat 1-3): 0.07522 and 0.1057
inhibition at 8 µM (H1975 cells; Homo sapiens, NCI-H1975, read-out: Inhibitory efficacy, H1975 cells, 8uM, given as fraction, Repeat 1-3): 6.27%
